Assays:
[1] = Bimatoprost bulk sample elution, normalized to ng per device per day; assay type: physicochemical; settings: for zero order elution rate: about 90 days
Description: Bulk samples of 1% Bimatoprost having a known diameter of 0.076 cm (0.76 mm) were prepared. The height of each sample was determined from the weight and known diameter of the sample.
The calculated heights ranged from 0.33 cm to 0.42 cm. The exposed surface area on each end of each bulk sample was approximately 0.045 cm^2, providing volumes of 0.019 cm^3 and 0.015 cm^3 for the 0.42 and 0.33 cm samples, respectively. The exposed an exposed surface area of samples calculated from the height and diameter without a drug sheath was approximately 0.1 cm^2. Three formulations were evaluated: 1) silicone 4011, 1% Bimatoprost, 0% surfactant; 2) silicone 4011, 1% Bimatoprost, approximately 11% surfactant; and 3) silicone 4011, 1% Bimatoprost, approximately 33% surfactant. The elution data measured for the bulk samples with formulation 1, 2 and 3 were normalized to ng per device per day (ng/device/day) assuming a surface area of the bulk device is 0.1 cm^2 and the surface area of the clinical device is 0.00078 cm^2 (0.3 mm diameter). […] The normalized elution profile is about 10 ng per day. […] Similar formulations can be used with drug core sheaths and a shaped exposed surface of the core exposed to the tear to increase the exposed surface area as described above and deliver the drug in therapeutic amounts over an extended period.
In some embodiments, the core can comprise a 0.76 mm diameter core with an exposed surface diameter of 0.76 mm, corresponding to an exposed surface area of 0.0045 cm^2. The core can be covered with a sheath to define the exposed surface of the core as described above The normalized elution profile for such a device, based on the bulk sample data above, is approximately 6 times (0.0045 cm^2/0.00078 cm^2) the elution profile for the device with a 0.3 mm diameter exposed surface area. Thus, a zero order elution profile with an elution rate of about 60 ng per day can be obtained over a period of about 90 days. If the exposed surface area is increased to about 0.0078 cm2, for example with many of the exposed surface shapes as described above, the zero order elution rat is about 100 ng per day over a period of about 90 days. The concentration can also be increased from 1%. Similar elution profiles can be obtained with Latanoprost.

[2] = Latanoprost elution from drug cores of four formulations (silicone 4011, 6385 and/or NaCl); assay type: physicochemical; settings: formulations A-D, non-sterile drug cores
Excerpt: Drug cores were manufactured as described above with Latanoprost and silicone 4011, 6385 and/or NaCl. Four formulations were manufactured as follows: A) silicone 4011, approximately 20% Latanoprost, and approximately 20% NaCL; B) silicone 4011, approximately 20% Latanoprost, and approximately 10% NaCl; C) silicone 4011, approximately 10% Latanoprost, and approximately 10% NaCl; and D) silicone 6385, approximately 20% Latanoprost. […] The results shown are for non-sterile drug cores. Similar results have been obtained with sterile drug cores of Latanoprost.

[3] = test system: IOP; settings: cited from earlier work
[4] = Latanoprost drug core elution study (in vitro), 7.4 pH buffer, HPLC; assay type: physicochemical; settings: for Duration: calculated time when ~10% of original drug remains
Excerpt: Drug cores as described above have been fabricated with different cross sectional sizes of 0.006 inches, 0.012 inches, and 0.025 inches, and drug concentrations of 5%, 10% and 20% in a silicone matrix. Theses drug cores can be made with a Syringe Tube and Cartridge Assembly, Mixing Latanoprost with Silicone, and Injecting the mixture into a polyimide tube which is cut to desired lengths and sealed. The length of the drug cores were approximately 0.80 to 0.95 mm, which for a diameter of 0.012 inches (0.32 mm) corresponds to total Latanoprost content in the drug cores of approximately 3.5 μg, 7 μg and 14 μg for concentrations of 5%, 10% and 20%, respectively.
Syringe Tube and Cartridge Assembly. 1. Take polyimide tubing of three different diameters 0.006 inches, 0.0125 inches and 0.025 inches. 2. Cut polyimide tubing of different diameters to ˜15 cm length. 3. Insert Polyimide tubes into a Syringe Adapter. 4. Adhesive bond polyimide tube into luer adapter (Loctite, low viscosity UV cure). 5. Trim end of assembly. 6. Clean the cartridge assembly using distilled water and then with methanol and dry it in oven at 60° C.
Mix Latanoprost with Silicone. Prepare Latanoprost. Latanoprost is provided as a 1% solution in methylacetate. Place the appropriate amount of solution into a dish and using a nitrogen stream, evaporate the solution until only the Latanoprost remains. Place the dish with the Latanoprost oil under vacuum for 30 minutes. Combine Latanoprost with silicone. Prepare three different concentrations of Latanoprost (5%, 10% and 20%) in silicon Nusil 6385 and inject it into tubing of different diameters (0.006 in, 0.012 in and 0.025 inches) to generate 3×3 matrixes. The percent of Latanoprost to silicone is determined by the total weight of the drug matrix. Calculation: Weight of Latanoprost/(weight of Latanoprost+weight of silicone)×100=percent drug.
Inject tube. 1. Insert Cartridge and Polyimide tubes assembly into 1 ml syringe. 2. Add one drop of catalyst, (MED-6385 Curing Agent) in the syringe. 3. Force excess catalyst out of the polyimide tube with clean air. 4. Fill syringe with silicone drug matrix. 5. Inject tube with drug matrix until the tube is filled or the syringe plunger becomes too difficult to push. 6. Close off the distal end of the polyimide tube and maintain pressure until the silicone begins to solidify. 7. Allow to cure at room temperature for 12 hours. 8. Place under vacuum for 30 minutes. 9. Place tube in right size trim fixture (prepared in house to hold different size tubing) and cut drug inserts to length (0.80-0.95 mm).
Testing. Elution study (in vitro). 1. Place 10 plugs of same size and same concentration per centrifuge tube and add 1.5 ml of 7.4 pH buffer solution to it. 2. Change the solvent with fresh 7.4 pH buffer after appropriate time. 3. Take HPLC of the eluant at 210 nm with PDA detector 2996 using Sunfire C18, 3 mm×10 mm column (Waters Corporation, Milford, Mass.). Acetonitrile and water mixture is used for gradient elution. Calibration was done in house before and after each analysis, using in-house standards with precisely weighed concentration of Latanoprost. 4. Calculate the amount of drug release per day per device for different size tubings having different concentrations of Latanoprost. 5. Plot elution rate vs area and concentration for day 1 and day 14.

CCNC(=O)CCC/C=C\C[C@@H]1[C@@H](/C=C/[C@@H](O)CCc2ccccc2)[C@H](O)C[C@@H]1O [Bimatoprost]
release kinetics ([1]; each of formulations 1-3, from about ten days to about 90 days): approximately zero order release kinetics
zero order elution rate ([1]; extrapolated from bulk data to 0.76 mm exposed surface diameter (0.0045 cm^2)): about 60 ng per day
zero order elution rate ([1]; extrapolated from bulk data to exposed surface area about 0.0078 cm2): about 100 ng per day
normalized elution profile ([1]; silicone 4011 with 1% Bimatoprost, formulations 1-3 (0%, 11%, 33% surfactant), normalized to 0.3 mm exposed surface diameter (0.00078 cm^2)): about 10 ng per day

CC(C)OC(=O)CCC/C=C\C[C@@H]1[C@@H](CC[C@@H](O)CCc2ccccc2)[C@H](O)C[C@@H]1O [Latanoprost]
elution rate ([2]; by 3 weeks (21 days)): about 100 ng per device per day
initial elution rate ([2]; initial): approximately 300 ng per device per day
time effective in lowering IOP ([3]; about 200 ng of drug remaining on the eye after a drop of Xalatan): at least 24 hours
IOP reduction relative to the 50 μg/mL QD dose ([3]; lowest doses of 12.5 μg/mL QD or 15 μg/mL BID): 60-75%
elution rate compared with the 14 μg core ([4]; 7 μg core (10%), 0.32 mm diameter, 0.95 mm long, from 10 to 20 days): comparable rates
elution rate ([4]; 14 μg core (20%), 0.32 mm diameter, 0.95 mm long, from about 10 to 40 days): approximately 100 ng per day
initial elution of Latanoprost from the plug ([4]; buffered saline elution system, initially): approximately 500 ng per day
elution of Latanoprost from the plug after drop-off ([4]; buffered saline elution system, within 7-14 days, depending on initial concentration): approximately 100 ng/day
quantity of Latanoprost released ([4]; day 1, 0.006 inch diameter core (exposed surface area 0.02 mm^2)): about 200 ng
quantity of Latanoprost released ([4]; day 1, 0.012 inch diameter core (exposed surface area 0.07 mm^2)): ~400 ng
quantity of Latanoprost released ([4]; day 1, 0.025 inch diameter core (exposed surface area 0.32 mm^2)): ~1200 ng
quantity of Latanoprost released ([4]; day 14, 0.006 inch diameter core (exposed surface area 0.02 mm^2)): about 25 ng
quantity of Latanoprost released ([4]; day 14, 0.012 inch (0.32 mm) diameter core (exposed surface area 0.07 mm^2)): ~100 ng
quantity of Latanoprost released ([4]; day 14, 0.025 inch diameter core (exposed surface area 0.32 mm^2)): ~300 ng
Duration ([4]; total Latanoprost content 3.5 μg): ~25 days
Duration ([4]; total Latanoprost content 7 μg): ~45 days
Duration ([4]; total Latanoprost content 14 μg): ~100 days

Reference: patent US11406592B2, “Drug delivery methods, structures, and compositions for nasolacrimal system” (Mati Therapeutics Inc., priority 2006, dated 2022)
